Laboratory results: PubChem BioAssay (NCI)
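All cell lines were grown in 96-well plates and treated with compound for 48 hours. GI50 marks 50% less growth. TGI is the concentration that stops growth completely.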

Legend:
Test in all cases: NCI tumour cell line growth inhibition, 48 h
NCI-H460 lung = system: NCI-H460 lung
HOP-92 NSCLC = system: HOP-92 NSCLC
SF-295 CNS = system: SF-295 CNS
SK-MEL-5 melanoma = system: SK-MEL-5 melanoma
SNB-75 CNS = system: SNB-75 CNS
OVCAR-3 ovarian = system: OVCAR-3 ovarian
CAKI-1 renal = system: CAKI-1 renal
HL-60(TB) leukemia = system: HL-60(TB) leukemia
TK-10 renal = system: TK-10 renal
DU-145 prostate = system: DU-145 prostate
HT29 colon = system: HT29 colon
HCT-116 colon = system: HCT-116 colon
K-562 leukemia = system: K-562 leukemia
UO-31 renal = system: UO-31 renal
KM12 colon = system: KM12 colon
COLO 205 colon = system: COLO 205 colon
MDA-MB-468 breast = system: MDA-MB-468 breast
SK-MEL-28 melanoma = system: SK-MEL-28 melanoma
NCI-H23 lung = system: NCI-H23 lung
CCRF-CEM leukemia = system: CCRF-CEM leukemia
SNB-19 CNS = system: SNB-19 CNS
MDA-MB-231 breast = system: MDA-MB-231 breast
M14 melanoma = system: M14 melanoma
MALME-3M melanoma = system: MALME-3M melanoma
U251 CNS = system: U251 CNS
RPMI-8226 leukemia = system: RPMI-8226 leukemia
EKVX NSCLC = system: EKVX NSCLC
SF-539 CNS = system: SF-539 CNS
SN12C renal = system: SN12C renal
BT-549 breast = system: BT-549 breast
NCI-H226 lung = system: NCI-H226 lung
PC-3 prostate = system: PC-3 prostate
HS 578T breast = system: HS 578T breast
OVCAR-8 ovarian = system: OVCAR-8 ovarian
RXF 393 renal = system: RXF 393 renal
MOLT-4 leukemia = system: MOLT-4 leukemia
LOX IMVI melanoma = system: LOX IMVI melanoma
SF-268 CNS = system: SF-268 CNS
A549 NSCLC = system: A549 NSCLC
NCI-H522 lung = system: NCI-H522 lung
HCT-15 colon = system: HCT-15 colon
SR leukemia = system: SR leukemia
786-0 renal = system: 786-0 renal
IGROV1 ovarian = system: IGROV1 ovarian
HCC-2998 colon = system: HCC-2998 colon
OVCAR-4 ovarian = system: OVCAR-4 ovarian
ACHN renal = system: ACHN renal
A498 renal = system: A498 renal
HOP-62 NSCLC = system: HOP-62 NSCLC
UACC-257 melanoma = system: UACC-257 melanoma
UACC-62 melanoma = system: UACC-62 melanoma
T-47D breast = system: T-47D breast
MDA-MB-435 = system: MDA-MB-435
SW-620 colon = system: SW-620 colon
SK-OV-3 ovarian = system: SK-OV-3 ovarian
OVCAR-5 ovarian = system: OVCAR-5 ovarian
MCF7 breast = system: MCF7 breast

Cc1cccc(NC(=O)[C@]23CCC(C)(C)CC2C2=CCC4[C@@]5(C)C[C@@H](O)[C@H](O)[C@@](C)(CO)C5CC[C@@]4(C)[C@]2(C)CC3)c1 (some centres undefined)
GI50 (NCI-H460 lung): 12.5 µM
TGI (NCI-H460 lung): 25.6 µM
GI50 (HOP-92 NSCLC): 8.64 µM
TGI (HOP-92 NSCLC): 23.1 µM
GI50 (SF-295 CNS): 10 µM
TGI (SF-295 CNS): 22.5 µM
GI50 (SK-MEL-5 melanoma): 11.9 µM
TGI (SK-MEL-5 melanoma): 24.3 µM
GI50 (SNB-75 CNS): 6.02 µM
TGI (SNB-75 CNS): 39.1 µM
GI50 (OVCAR-3 ovarian): 14 µM
TGI (OVCAR-3 ovarian): 28 µM
GI50 (CAKI-1 renal): 6.63 µM
TGI (CAKI-1 renal): 21.9 µM
GI50 (HL-60(TB) leukemia): 15.2 µM
TGI (HL-60(TB) leukemia): 55.9 µM
GI50 (TK-10 renal): 16.5 µM
TGI (TK-10 renal): 35.8 µM
GI50 (DU-145 prostate): 16.5 µM
TGI (DU-145 prostate): 39.1 µM
GI50 (HT29 colon): 13.1 µM
TGI (HT29 colon): 27 µM
GI50 (HCT-116 colon): 10.7 µM
TGI (HCT-116 colon): 22.5 µM
GI50 (K-562 leukemia): 14.5 µM
TGI (K-562 leukemia): 60.5 µM
GI50 (UO-31 renal): 7.07 µM
TGI (UO-31 renal): 20.3 µM
GI50 (KM12 colon): 14.1 µM
TGI (KM12 colon): 30.8 µM
GI50 (COLO 205 colon): 13.6 µM
TGI (COLO 205 colon): 29.1 µM
GI50 (MDA-MB-468 breast): 5.17 µM
TGI (MDA-MB-468 breast): 20.4 µM
GI50 (SK-MEL-28 melanoma): 13.3 µM
TGI (SK-MEL-28 melanoma): 26.5 µM
GI50 (NCI-H23 lung): 14.6 µM
TGI (NCI-H23 lung): 28.8 µM
GI50 (CCRF-CEM leukemia): 9.29 µM
TGI (CCRF-CEM leukemia): 35.1 µM
GI50 (SNB-19 CNS): 18.4 µM
TGI (SNB-19 CNS): 47.4 µM
GI50 (MDA-MB-231 breast): 13.8 µM
TGI (MDA-MB-231 breast): 28.1 µM
GI50 (M14 melanoma): 13.7 µM
TGI (M14 melanoma): 27.3 µM
GI50 (MALME-3M melanoma): 14.7 µM
TGI (MALME-3M melanoma): 28.3 µM
GI50 (U251 CNS): 14.9 µM
TGI (U251 CNS): 30.1 µM
GI50 (RPMI-8226 leukemia): 6.25 µM
TGI (RPMI-8226 leukemia): 32 µM
GI50 (EKVX NSCLC): 12.8 µM
TGI (EKVX NSCLC): 29.1 µM
GI50 (SF-539 CNS): 13.9 µM
TGI (SF-539 CNS): 28 µM
GI50 (SN12C renal): 12.6 µM
TGI (SN12C renal): 25.5 µM
GI50 (BT-549 breast): 14.3 µM
TGI (BT-549 breast): 27.8 µM
GI50 (NCI-H226 lung): 10.4 µM
TGI (NCI-H226 lung): 22.9 µM
GI50 (PC-3 prostate): 5.16 µM
TGI (PC-3 prostate): 20.5 µM
GI50 (HS 578T breast): 12.8 µM
TGI (HS 578T breast): 50.8 µM
GI50 (OVCAR-8 ovarian): 18.5 µM
TGI (OVCAR-8 ovarian): 60.2 µM
GI50 (RXF 393 renal): 3.77 µM
TGI (RXF 393 renal): 17 µM
GI50 (MOLT-4 leukemia): 7.87 µM
TGI (MOLT-4 leukemia): 52 µM
GI50 (LOX IMVI melanoma): 12.8 µM
TGI (LOX IMVI melanoma): 27.8 µM
GI50 (SF-268 CNS): 14.1 µM
TGI (SF-268 CNS): 42.3 µM
GI50 (A549 NSCLC): 22.2 µM
TGI (A549 NSCLC): > 100 µM
GI50 (NCI-H522 lung): 14.6 µM
TGI (NCI-H522 lung): 28.9 µM
GI50 (HCT-15 colon): 10.8 µM
TGI (HCT-15 colon): 23.4 µM
GI50 (SR leukemia): 16.7 µM
TGI (SR leukemia): > 100 µM
GI50 (786-0 renal): 14.6 µM
TGI (786-0 renal): 29.4 µM
GI50 (IGROV1 ovarian): 12.2 µM
TGI (IGROV1 ovarian): 25.4 µM
GI50 (HCC-2998 colon): 13 µM
TGI (HCC-2998 colon): 26.2 µM
GI50 (OVCAR-4 ovarian): 11.5 µM
TGI (OVCAR-4 ovarian): 25.2 µM
GI50 (ACHN renal): 12.4 µM
TGI (ACHN renal): 24.9 µM
GI50 (A498 renal): 15.7 µM
TGI (A498 renal): 29.4 µM
GI50 (HOP-62 NSCLC): 14.9 µM
TGI (HOP-62 NSCLC): 29.4 µM
GI50 (UACC-257 melanoma): 15.3 µM
TGI (UACC-257 melanoma): 31.5 µM
GI50 (UACC-62 melanoma): 11.3 µM
TGI (UACC-62 melanoma): 23.7 µM
GI50 (T-47D breast): 7.45 µM
TGI (T-47D breast): 20.7 µM
GI50 (MDA-MB-435): 13.3 µM
TGI (MDA-MB-435): 26.5 µM
GI50 (SW-620 colon): 15 µM
TGI (SW-620 colon): 29.7 µM
GI50 (SK-OV-3 ovarian): 14.5 µM
TGI (SK-OV-3 ovarian): 34.6 µM
GI50 (OVCAR-5 ovarian): 13.3 µM
TGI (OVCAR-5 ovarian): 26.4 µM
GI50 (MCF7 breast): 5.71 µM
TGI (MCF7 breast): 19.2 µM
